Values of other authors in patent US7309799B2 (Collegium Pharmaceutical, Inc., priority 2004, dated 2007).

Legend:
[1] = test system: neurotransmitter receptor
[2] = test system: gastric mucosa; conditions: preclinical studies
[3] = test system: SNL-induced hypersensitivity; conditions: rats; for reversal of mechanical hypersensitivity: SNL
[4] = target: reuptake of serotonin (Homo sapiens, UniProt P31645); conditions: compared with noradrenaline reuptake
Sequence of reuptake of serotonin (P31645 whole entry): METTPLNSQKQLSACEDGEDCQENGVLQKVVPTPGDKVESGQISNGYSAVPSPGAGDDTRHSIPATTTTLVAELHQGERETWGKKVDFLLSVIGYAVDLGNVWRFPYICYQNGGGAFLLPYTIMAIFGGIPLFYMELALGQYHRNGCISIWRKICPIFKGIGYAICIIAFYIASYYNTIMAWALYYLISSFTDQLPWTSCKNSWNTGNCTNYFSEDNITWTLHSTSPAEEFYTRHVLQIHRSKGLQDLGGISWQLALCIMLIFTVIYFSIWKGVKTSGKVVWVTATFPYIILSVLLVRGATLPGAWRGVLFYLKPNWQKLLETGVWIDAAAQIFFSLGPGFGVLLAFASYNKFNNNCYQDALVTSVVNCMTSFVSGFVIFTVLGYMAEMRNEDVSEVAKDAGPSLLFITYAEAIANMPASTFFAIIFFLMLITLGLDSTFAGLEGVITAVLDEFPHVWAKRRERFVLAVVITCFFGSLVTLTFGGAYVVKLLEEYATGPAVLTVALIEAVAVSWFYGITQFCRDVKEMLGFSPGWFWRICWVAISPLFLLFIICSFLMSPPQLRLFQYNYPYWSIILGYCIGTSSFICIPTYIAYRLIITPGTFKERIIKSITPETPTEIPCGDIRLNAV

SMILES	general and cardiovascular tolerability versus TCAs (database of over 3300 patients)	incidence of dysuria versus SSRIs (human, in vivo)	tolerability versus SSRIs (human, in vivo)	nausea and vomiting (dose-limiting gastrointestinal disturbances) (oral administration)	affinity for any neurotransmitter receptor studied [1]	effect on gastric mucosa [2]	effectiveness in reversing SNL induced thermal hypersensitivity compared with duloxetine [3]	reversal of SNL-induced thermal hypersensitivity [3]	reversal of mechanical hypersensitivity [3]	potency of inhibition of the reuptake of serotonin [4]
CCN(CC)C(=O)[C@@]1(c2ccccc2)C[C@H]1CN.Cl (racemic) [milnacipran, racemic cis-2-(aminomethyl)-N,N-diethyl-1-phenyl-cyclopropanecarboxamide]	superior to those of the tricyclic antidepressants (TCAs)	higher incidence of dysuria	comparable to that of the SSRIs	increasing frequency after doses of 100 mg or above	no detectable affinity	direct irritant effect	more effective	both reversed	Neither milnacipran nor duloxetine reversed	essentially equal potency
CNCC[C@H](Oc1cccc2ccccc12)c1cccs1 [duloxetine]	–	–	–	–	–	–	–	both reversed	Neither milnacipran nor duloxetine reversed	–
